Structures are written as SMILES. Structures can show the parent of a compound that is named as a salt.

One may read the melting point as the temperature, or range, at which the solid turns liquid. As to `CCN1CCN(c2nc(C3CCc4ccc(OC)cc43)cc3ccccc23)CC1` (stereo not drawn) (as salt: oxalate) [Example 114, 3-(6-Methoxyindan-1-yl)-1-(4-ethylpiperazin-1-yl)isoquinoline Oxalate], the melting point lay within 122 to 124 °C.

With `CCN1CCN(c2nc(C3=CCCc4cc(OC)ccc43)cc3ccccc23)CC1` (as salt: oxalate) [Example 117, 3-(7-Methoxy-1,2-dihydronaphthalen-4-yl)-1-(4-ethylpiperazin-1-yl)isoquinoline Oxalate], the melting point lay in the range of 112 to 114 °C.

In turn, `CCN1CCN(c2nc(-c3ccc(C4=CCOCC4)nc3)cc3ccccc23)CC1` (as salt: oxalate) [Example 155, 3-[2-(5,6-dihydro-2H-pyran-4-yl)pyridin-5-yl]-1-(4-ethylpiperazin-1-yl)isoquinoline oxalate] yielded a melting point of 156 to 159 °C.

`CCN1CCN(c2nc(-c3ccc(C4CCOCC4)nc3)cc3ccccc23)CC1` (as salt: oxalate) [Example 156, 3-[2-(tetrahydropyran-4-yl)pyridin-5-yl]-1-(4-ethylpiperazin-1-yl)isoquinoline oxalate] gave a melting point of 158 to 160 °C.

On to `CCN1CCN(c2nc(C#Cc3ccccn3)cc3ccccc23)CC1` (as salt: oxalate) [Example 179, 1-(1-Ethylpiperazin-4-Yl)-3-(2-Pyridyl)Ethynylisoquinoline Oxalate], for which the melting point lay within 148 to 154 °C.

In turn, `CCN1CCN(c2nc(C#CCN3CCOCC3)cc3ccccc23)CC1` (as salt: oxalate) [Example 180, 3-[3-(4-Morpholinyl)-1-Propynyl]-1-(4-Ethylpiperazin-1-Yl)Isoquinoline Oxalate] returned a melting point of 231 to 233 °C.

Turning to `CCN1CCN(c2nc(C#CCc3ccccc3)cc3ccccc23)CC1` (as salt: oxalate) [Example 181, 1-(1-Ethylpiperazin-4-Yl)-3-(3-Phenyl-1-Propynyl)Isoquinoline Oxalate], the melting point lay within 180 to 183 °C.

As to `CCN1CCN(c2nc(C#CC(=O)c3ccccc3)cc3ccccc23)CC1` (as salt: oxalate) [Example 184, 1-(1-Ethylpiperazin-4-Yl)-3-Benzoylethynylisoquinoline Oxalate], the melting point fell in the range of 161 to 163 °C.

`CCN1CCN(c2nc(/C=C/c3ccc(CS(C)(=O)=O)cc3)cc3ccccc23)CC1` (as salt: oxalate) [Example 203, 3-[(E)-2-(4-Methylsulfonylmethylphenyl)Ethenyl]-1-(4-Ethylpiperazin-1-Yl)Isoquinoline Oxalate] displayed a melting point of 245 to 247 °C.

In the case of `CCN1CCN(c2nc(/C=C/c3cccc(N4CCOCC4)c3)cc3ccccc23)CC1` (as salt: oxalate) [Example 204, 3-{(E)-2-[3-(4-Morpholinyl)Phenyl]Ethenyl}-1-(4-Ethylpiperazin-1-Yl)Isoquinoline Oxalate], the melting point was 180 to 182 °C.

With `CCN1CCN(c2nc(/C=C/c3ccc(N4CCOCC4)cc3)cc3ccccc23)CC1` (as salt: oxalate) [Example 205, 3-{(E)-2-[4-(4-Morpholinyl)Phenyl]Ethenyl}-1-(4-Ethylpiperazin-1-Yl)Isoquinoline Oxalate], the melting point lay within 248 to 250 °C.

In turn, `CCN1CCN(c2nc(/C=C(\C)c3ccc(N4CCOCC4)cc3)cc3ccccc23)CC1` (as salt: oxalate) [Example 206, 3-{(E)-2-Methyl-2-[4-(4-Morpholinyl)Phenyl]Ethenyl}-1-(4-Ethylpiperazin-1-Yl)Isoquinoline Oxalate] gave a melting point of 266 to 267 °C.

`CCN1CCN(c2nc(/C=C(\C)c3cccc(N4CCOCC4)c3)cc3ccccc23)CC1` (as salt: oxalate) [Example 207, 3-{(E)-2-Methyl-2-[3-(4-Morpholinyl)Phenyl]Ethenyl}-1-(4-Ethylpiperazin-1-Yl)Isoquinoline Oxalate] had a melting point of 190 to 192 °C.

`CCN1CCN(c2nc(/C=C/c3ccc(N4CCOCC4)nn3)cc3ccccc23)CC1` (as salt: oxalate) [Example 214, 3-{(E)-2-[3-(4-Morpholinyl)Pyridazin-6-Yl]Ethenyl}-1-(4-Ethylpiperazin-1-Yl)Isoquinoline Oxalate] had a melting point of 88 to 90 °C.

Consider `CCN1CCN(c2nc(/C=C/c3cc(N4CCOCC4)ncn3)cc3ccccc23)CC1` (as salt: oxalate) [Example 215, 3{(E)-2-[4-(4-morpholinyl)pyrimidin-6-yl]ethenyl}-1-(4-ethylpiperazin-1-yl)isoquinoline oxalate], for which the melting point lay within 130 to 134 °C.

On to `CCN1CCN(c2nc(/C=C/c3cncc(N4CCOCC4)n3)cc3ccccc23)CC1` (as salt: oxalate) [Example 216, 3-{(E)-2-[2-(4-morpholinyl)pyrazin-6-yl]ethenyl}-1-(4-ethylpiperazin-1-yl)isoquinoline oxalate], for which the melting point lay in the range of 173 to 175 °C.

The molecule `CCN1CCN(c2nc(-c3ccc(CCCO)c(Cl)c3)cc3ccsc23)CC1` (as salt: oxalate) [Example 257, 5-[4-(3-hydroxypropyl)-3-chlorophenyl]-7-(4-ethylpiperazin-1-yl)thieno[2,3-c]pyridine Oxalate] showed a melting point of 114 to 116 °C.

In turn, `CCN1CCN(c2nc(-c3ccc(OC)c(CCCO)c3)cc3ccsc23)CC1` (as salt: oxalate) [Example 261, 5-[3-(3-hydroxypropyl)-4-methoxyphenyl]-7-(4-ethylpiperazin-1-yl)thieno[2,3-c]pyridine Oxalate] came in with a melting point of 98 to 102 °C.

The molecule `CCN1CCN(c2nc(-c3ccc(CCCO)c(C#N)c3)cc3ccsc23)CC1` (as salt: oxalate) [Example 262, 5-[4-(3-hydroxypropyl)-3-cyanophenyl]-7-(4-ethylpiperazin-1-yl)thieno[2,3-c]pyridine Oxalate] came in with a melting point of 132 to 134 °C.

Consider `CCN1CCN(c2nc(-c3ccc(OCCO)nc3)cc3ccsc23)CC1` (as salt: oxalate) [Example 268, 5-[2-(2-hydroxyethoxy)pyridin-5-yl]-7-(4-ethylpiperazin-1-yl)thieno[2,3-c]pyridine Oxalate], for which the melting point fell in the range of 124 to 125 °C.

The molecule `OCCOc1ccc(-c2cc3ccsc3c(N3CCN(CCO)CC3)n2)cc1` (as salt: oxalate) [Example 275, 5-[4-(2-hydroxyethoxy)phenyl]-7-[4-(2-hydroxyethyl)piperazin-1-yl]thieno[3,2-c]pyridine oxalate] yielded a melting point of 105 to 107 °C.

For `CCN1CCN(c2nc(-c3ccc(OCCO)cc3)cc3cscc23)CC1` (as salt: oxalate) [Example 278, 4-(4-ethylpiperazin-1-yl)-6-[4-(2-hydroxyethoxy)phenyl]thieno-[3,4-c]pyridine oxalate], the melting point was 130 °C (dec.).

On to `CCN1CCN(c2nc(-c3ccc(C(C)O)cc3)cc3sccc23)CC1` (stereo not drawn) (as salt: oxalate) [Example 281, 4-(4-ethylpiperazin-1-yl)-6-[4-(1-hydroxyethyl)phenyl]thieno[3,2-c]pyridine oxalate], for which the melting point lay within 134 to 135 °C.

Molecule `CCC(O)c1ccc(-c2cc3sccc3c(N3CCN(CC)CC3)n2)cc1` (stereo not drawn) (as salt: oxalate) [Example 282, 4-(4-ethylpiperazin-1-yl)-6-[4-(1-hydroxypropyl)phenyl]thieno-[3,2-c]pyridine oxalate] gave a melting point of 130 to 131 °C.

The values above are taken from US6875761B2 (Eisai Co., Ltd., priority 1997, dated 2005).
